Measurements: the NIST ThermoML archive (doi:10.1021/je101361u)

Experiment: xn = mol fraction of the nth substance listed
Conditions: 101.3 kPa, Liquid, Vibrating tube method

COCCOCCOC [2,5,8-trioxanonane] + ClCCCl
mass density [kg/m3]
Conditions | 308.15 K | 313.15 K | 318.15 K | 323.15 K | 328.15 K | 333.15 K
x2 = 0.0252 | – | 928.2 | 923.14 | 918.07 | 912.99 | 907.88
x2 = 0.0508 | – | 932.81 | 927.72 | 922.62 | 917.5 | 912.36
x2 = 0.0751 | – | 937.26 | 932.15 | 927.01 | 921.85 | 916.68
x2 = 0.1 | – | 941.89 | 936.74 | 931.58 | 926.39 | 921.19
x2 = 0.1502 | – | 951.65 | 946.43 | 941.2 | 935.95 | 930.67
x2 = 0.1999 | – | 961.71 | 956.42 | 951.12 | 945.79 | 940.45
x2 = 0.25 | – | 972.4 | 967.04 | 961.66 | 956.26 | 950.83
x2 = 0.3002 | – | 983.61 | 978.16 | 972.68 | 967.18 | 961.67
x2 = 0.3501 | – | 995.21 | 989.69 | 984.14 | 978.56 | 972.96
x2 = 0.4 | 1013.05 | 1007.46 | 1001.83 | 996.19 | 990.53 | 984.84
x2 = 0.45 | 1025.99 | 1020.29 | 1014.56 | 1008.81 | 1003.05 | 997.27
x2 = 0.5003 | 1039.78 | 1033.98 | 1028.16 | 1022.31 | 1016.44 | 1010.54
x2 = 0.5499 | 1054.03 | 1048.12 | 1042.19 | 1036.25 | 1030.26 | 1024.25
x2 = 0.5999 | 1069.2 | 1063.17 | 1057.13 | 1051.05 | 1044.95 | 1038.81
x2 = 0.6501 | 1085.36 | 1079.21 | 1073.04 | 1066.84 | 1060.6 | 1054.34
x2 = 0.7 | 1102.36 | 1096.08 | 1089.77 | 1083.44 | 1077.08 | 1070.67
x2 = 0.75 | 1120.21 | 1113.78 | 1107.32 | 1100.83 | 1094.32 | 1087.77
x2 = 0.8 | 1139.52 | 1132.93 | 1126.31 | 1119.65 | 1112.98 | 1106.28
x2 = 0.8499 | 1159.94 | 1153.19 | 1146.4 | 1139.57 | 1132.71 | 1125.84
x2 = 0.9 | 1181.94 | 1175 | 1168.02 | 1160.99 | 1153.95 | 1146.89
x2 = 0.925 | 1193.47 | 1186.42 | 1179.34 | 1172.21 | 1165.08 | 1157.9
x2 = 0.9494 | 1205.37 | 1198.22 | 1191.02 | 1183.78 | 1176.54 | 1169.26
x2 = 0.975 | 1218.05 | 1210.78 | – | – | – | –
